# Tests used:
# Type in all cases: in vivo
# [1] = tested on: ECHINOCHLOA CRUS-GALLI, (L) BEAU; assay: Postemergence herbicidal evaluation, ECHCG (Barnyardgrass); parameters: key to ECHCG rating / Herbicidal effect rating, ECHCG / ECHCG: 0-9 visual rating scale vs untreated control
# In short: (§1)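 Each value is a 0–9 visual rating of plant appearance compared with control, recorded 4–5 weeks after a 0.125–0.500 kg/ha spray, with multiple tests averaged.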
# ZEA MAYS L. = assay: Postemergence herbicidal evaluation, ZEAMX (Corn, Field)
# In short: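 This greenhouse postemergence test treated corn plants about two weeks old. Compounds in a 50/50 acetone/water mixture with 0.5% TWEEN®20 were applied through a spray nozzle at 40 psi. After four to five weeks, injury was scored 0-9 against an untreated control, judging stand, vigor, malformation, size, chlorosis and overall appearance. Repeated tests were averaged.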
# [2] = tested on: ABUTILON THEOPHRASTI, MEDIC.; assay: Postemergence herbicidal evaluation, ABUTH (Velvetleaf)
# In short: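 This postemergence herbicide test used two-week-old velvetleaf seedlings grown in jiffy flats. Each compound was sprayed at 40 psi as a dispersion in 50/50 acetone/water with 0.5% TWEEN®20 surfactant. Plants then received routine greenhouse care. After four to five weeks, injury was scored visually on a 0-9 scale against a control, and replicate tests were averaged.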
# CHENOPODIUM ALBUM, L. = assay: Preemergence herbicidal evaluation, CHEAL (Lambsquarters, Common); conditions: four to five weeks after treatment
# In short: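 Seeds sown in potting soil cups, then sprayed preemergence with aqueous acetone compound solution at about 0.125 to 0.50 kg per hectare. Greenhouse-grown, rated 4–5 weeks after treatment on a 0–9 visual scale against control.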
# GALIUM APARINE = assay: Postemergence herbicidal evaluation, GALAP (Galium); parameters: key to GALAP rating / Herbicidal effect rating, GALAP / GALAP: 0-9 visual rating scale vs untreated control
# In short: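 In this postemergence greenhouse test, two-week-old Galium aparine seedlings grown in jiffy flats received a 40 psi spray of compound in acetone/water (50/50) with 0.5% TWEEN®20 surfactant. After four to five weeks, stand, vigor, malformation, size, chlorosis and overall appearance were compared with untreated controls on a 0-9 scale, averaging multiple tests.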
# [3] = tested on: AMBROSIA ARTEMISIIFOLIA, L.; assay: Postemergence herbicidal evaluation, AMBEL (Ragweed, Common)
# In short: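 Postemergence herbicidal activity on AMBEL (common ragweed) was assessed on two-week-old seedlings grown in jiffy flats. Treatment solutions of 50/50 acetone/water with 0.5% TWEEN®20 surfactant were sprayed at 40 psi. After four to five weeks in the greenhouse, plants were scored 0-9 against a control for stand, vigor, malformation, size, chlorosis and overall appearance, with multiple tests averaged.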
# IPOMOEA SPP. = assay: Postemergence herbicidal evaluation, IPOSS (Morningglory spp.)
# In short: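 In this greenhouse postemergence herbicide test on Ipomoea spp. (morningglory), compounds in 50/50 acetone/water with 0.5% TWEEN®20 were sprayed at 40 psi onto seedlings about two weeks old grown in jiffy flats. After four to five weeks, injury was scored on a 0-9 scale covering stand, vigor, malformation, size, chlorosis and overall appearance versus control, with repeat tests averaged.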
# [4] = tested on: SETARIA VIRIDIS, (L) BEAU; assay: Postemergence herbicidal evaluation, SETVI (Foxtail, Green); parameters: key to SETVI rating / Herbicidal effect rating, SETVI / SETVI: 0-9 visual rating scale vs untreated control
# In short: as §1
# [5] = tested on: TRITICUM AESTIVUM, CV. APOLLO; assay: Postemergence herbicidal evaluation, TRZAWO (Wheat, Winter, CV. APOLLO)
# In short: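 This greenhouse postemergence test applied compounds to roughly two-week-old wheat seedlings grown in jiffy flats. The spray solution was 50/50 acetone/water with 0.5% TWEEN®20, a polyoxyethylene sorbitan monolaurate, sprayed from a nozzle run at 40 psi. After four to five weeks of standard greenhouse care, injury was scored from 0 to 9 by comparing stand, vigor, malformation, size, chlorosis and overall appearance with a control. Multiple tests were averaged.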
# [6] = tested on: ORYZA SATIVA, L. TEBONNET; assay: Rice tolerance to post-transplant applications under flooded paddy conditions, ORYSAT (Rice, Tebonnet); conditions: for ORYSAT herbicidal rating (rice tolerance): post-transplant rice, rated three to four weeks after treatment; for ORYSAT: post-transplanted rice;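 for ORYSAT herbicidal rating (rice tolerance): applied to flooded soil surface three days after transplanting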
# In short: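 Visual 0-9 rating against untreated control (stand, vigor, malformation, size, chlorosis, overall appearance), taken 3-4 weeks after treatment. Flooded silt loam, water at 1.5-3 cm; two 10-day-old seedlings per pot; compound applied to flooded soil surface 3 days post-transplant at ~0.5-0.063 kg/ha.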
# CASSIA OBTUSIFOLIA, L. = assay: Postemergence herbicidal evaluation, CASOB (Sicklepod); parameters: key to CASOB rating / Herbicidal effect rating, CASOB / CASOB: 0-9 visual rating scale vs untreated control
# In short: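 Postemergence foliar spray at approximately 0.125–0.500 kg/ha onto two-week seedlings; greenhouse hold, then 0–9 visual injury rating after 4–5 weeks.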
smiles,measurement,setting,value
"COC(=O)Cn1c(=O)n(C)c(=O)n(-c2cc(Oc3ccc(C(F)(F)F)cc3Cl)ccc2[N+](=O)[O-])c1=O [Compound 3, Methyl 3-{5-[(2-chloro-α,α,α-trifluoro-p-tolyl)oxy]-2-nitrophenyl}tetrahydro-5-methyl-2,4,6-trioxo-s-triazine-1(2H)-acetate]","Herbicidal effect rating, ECHCG",[1]; 0.031 kg/ha,4.3
same,"Herbicidal effect rating, ECHCG",[1]; 0.063 kg/ha,5.1
same,"Herbicidal effect rating, ECHCG",[1]; 0.125 kg/ha,6.7
same,"Herbicidal effect rating, ECHCG",[1]; 0.250 kg/ha,7.9
same,"Herbicidal effect rating, ZEAMX",ZEA MAYS L.; 0.031 kg/ha,4.6
same,"Herbicidal effect rating, ZEAMX",ZEA MAYS L.; 0.063 kg/ha,4.8
same,"Herbicidal effect rating, ZEAMX",ZEA MAYS L.; 0.125 kg/ha,5.8
same,"Herbicidal effect rating, ZEAMX",ZEA MAYS L.; 0.250 kg/ha,6.9
same,"Herbicidal effect rating, ABUTH",[2]; 0.031 kg/ha,7.3
same,"Herbicidal effect rating, ABUTH",[2]; 0.063 kg/ha,8.1
same,"Herbicidal effect rating, ABUTH",[2]; 0.125 kg/ha,8.8
same,"Herbicidal effect rating, ABUTH",[2]; 0.250 kg/ha,8.9
same,CHEAL rating,"CHENOPODIUM ALBUM, L.; Rate 0.125 kg/ha",9.0
same,CHEAL rating,"CHENOPODIUM ALBUM, L.; Rate 0.250 kg/ha",9.0
same,CHEAL rating,"CHENOPODIUM ALBUM, L.; Rate 0.500 kg/ha",9.0
same,"Herbicidal effect rating, GALAP",GALIUM APARINE; 0.031 kg/ha,8.2
same,"Herbicidal effect rating, GALAP",GALIUM APARINE; 0.063 kg/ha,8.3
same,"Herbicidal effect rating, GALAP",GALIUM APARINE; 0.125 kg/ha,8.7
same,"Herbicidal effect rating, GALAP",GALIUM APARINE; 0.250 kg/ha,8.4
same,"Herbicidal effect rating, AMBEL",[3]; 0.031 kg/ha,8.3
same,"Herbicidal effect rating, AMBEL",[3]; 0.063 kg/ha,8.6
same,"Herbicidal effect rating, AMBEL",[3]; 0.125 kg/ha,8.8
same,"Herbicidal effect rating, AMBEL",[3]; 0.250 kg/ha,9.0
same,"Herbicidal effect rating, IPOSS",IPOMOEA SPP.; 0.031 kg/ha,7.6
same,"Herbicidal effect rating, IPOSS",IPOMOEA SPP.; 0.063 kg/ha,8.3
same,"Herbicidal effect rating, IPOSS",IPOMOEA SPP.; 0.125 kg/ha,8.9
same,"Herbicidal effect rating, IPOSS",IPOMOEA SPP.; 0.250 kg/ha,8.9
same,"Herbicidal effect rating, SETVI",[4]; 0.031 kg/ha,3.9
same,"Herbicidal effect rating, SETVI",[4]; 0.063 kg/ha,5.1
same,"Herbicidal effect rating, SETVI",[4]; 0.125 kg/ha,6.8
same,"Herbicidal effect rating, SETVI",[4]; 0.250 kg/ha,7.9
same,"Herbicidal effect rating, TRZAWO",[5]; 0.031 kg/ha,6.1
same,"Herbicidal effect rating, TRZAWO",[5]; 0.063 kg/ha,6.8
same,"Herbicidal effect rating, TRZAWO",[5]; 0.125 kg/ha,7.1
same,"Herbicidal effect rating, TRZAWO",[5]; 0.250 kg/ha,7.6
same,ORYSAT herbicidal rating (rice tolerance),[6]; Rate 0.063 kg/ha,2.7
same,ORYSAT herbicidal rating (rice tolerance),[6]; Rate 0.125 kg/ha,3.0
same,ORYSAT herbicidal rating (rice tolerance),[6]; Rate 0.250 kg/ha,3.8
same,ORYSAT herbicidal rating (rice tolerance),[6]; Rate 0.500 kg/ha,4.0
same,ORYSAT,[6]; Rate 0.031 kg/ha,1.0
same,ORYSAT,[6]; Rate 0.063 kg/ha,2.7
same,ORYSAT,[6]; Rate 0.125 kg/ha,3.0
same,ORYSAT,[6]; Rate 0.250 kg/ha,3.8
same,"Herbicidal effect rating, CASOB","CASSIA OBTUSIFOLIA, L.; 0.031 kg/ha",7.7
same,"Herbicidal effect rating, CASOB","CASSIA OBTUSIFOLIA, L.; 0.063 kg/ha",8.4
same,"Herbicidal effect rating, CASOB","CASSIA OBTUSIFOLIA, L.; 0.125 kg/ha",8.8
same,"Herbicidal effect rating, CASOB","CASSIA OBTUSIFOLIA, L.; 0.250 kg/ha",8.4

# — patent publication EP0745595A1, “3-(3-Aryloxyphenyl)-1-(substituted methyl)-s-triazine-2,4,6-oxo or thiotrione herbicidal agents” (American Cyanamid Company, priority 1995, dated 1996)
